Assay results: the supplement of paper PMC10307832

Compound: CN1CCN(c2ccc3nc(-c4c(N)c5c(F)cccc5[nH]c4=O)[nH]c3c2)CC1 [Dovitinib] + CC(=O)Nc1cccc(-n2c(=O)n(C3CC3)c(=O)c3c(Nc4ccc(I)cc4F)n(C)c(=O)c(C)c32)c1 [Trametinib] (partner 0.02 µM)
Experiment: relative viability (nuclei count vs DMSO), 5 days (fraction); higher = more cells survive
Procedure, shortened: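 One day after seeding in 1536-well plates, lung cancer cell lines were dosed by pin tool. Dosing was either single-drug or a fixed anchor-drug dose plus five library-drug doses (not always all listed) in √10 steps. After 5 days, nuclei were stained in one fix-and-stain step and counted on 4× images, and relative viability is the nuclei count of treated wells over that of vehicle wells, given as the median of duplicate plates.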

| Cell Line | relative viability (first compound 0.02 µM) | relative viability (first compound 0.06325 µM) | relative viability (first compound 0.2 µM) | relative viability (first compound 0.6325 µM) | relative viability (first compound 2 µM) |
| --- | --- | --- | --- | --- | --- |
| 201T | 0.706 | 0.701 | 0.699 | 0.748 | 0.674 |
| A-427 | 0.724 | 0.705 | 0.709 | 0.768 | 0.72 |
| BEN | 0.976 | 0.888 | 1.01 | 1.05 | 1.04 |
| CAL-12T | 0.491 | 0.34 | 0.413 | 0.36 | 0.371 |
| COR-L23 | 0.568 | 0.641 | 0.601 | 0.532 | 0.628 |
| COR-L 105 | 0.533 | 0.405 | 0.441 | 0.459 | 0.577 |
| ChaGo-K-1 | 0.868 | 0.875 | 0.936 | 0.885 | 0.778 |
| EKVX | 0.395 | 0.32 | 0.332 | 0.351 | 0.327 |
| EMC-BAC-2 | 1.2 | 0.811 | 0.986 | 0.873 | 0.945 |
| EPLC-272H | 0.306 | 0.269 | 0.298 | 0.269 | 0.303 |
| H3255 | 0.699 | 0.578 | 0.746 | 0.614 | 0.566 |
| HARA | 0.89 | 0.924 | 0.484 | 0.827 | 0.878 |
| HCC-15 | 0.434 | 0.342 | 0.369 | 0.341 | 0.377 |
| HCC-44 | 1.06 | 1.07 | 1.1 | 1.07 | 1.02 |
| HCC-78 | 0.643 | 0.663 | 0.762 | 0.813 | 0.746 |
| HCC-366 | 0.405 | 0.379 | 0.338 | 0.323 | 0.371 |
| HCC-827 | 0.553 | 0.553 | 0.565 | 0.603 | 0.57 |
| HOP-62 | 0.368 | 0.386 | 0.397 | 0.392 | 0.352 |
| LC-2-ad | 0.92 | 0.903 | 0.873 | 0.927 | 0.815 |
| LCLC-97TM1 | 0.267 | 0.204 | 0.199 | 0.196 | 0.203 |
| LCLC-103H | 0.683 | 0.723 | 0.622 | 0.556 | 0.667 |
| LK-2 | 0.758 | 0.751 | 0.784 | 0.809 | 0.585 |
| LOU-NH91 | 0.81 | 0.784 | 0.798 | 0.82 | 0.815 |
| LU99A | 0.534 | 0.505 | 0.541 | 0.481 | 0.557 |

| Cell Line | relative viability (first compound 0.02 µM) | relative viability (first compound 0.06325 µM) | relative viability (first compound 0.2 µM) | relative viability (first compound 0.6325 µM) | relative viability (first compound 2 µM) |
| --- | --- | --- | --- | --- | --- |
| LXF-289 | 0.619 | 0.716 | 0.695 | 0.612 | 0.662 |
| NCI-H23 | 0.391 | 0.446 | 0.376 | 0.4 | 0.378 |
| NCI-H322M | 0.557 | 0.506 | 0.507 | 0.496 | 0.543 |
| NCI-H358 | 0.156 | 0.144 | 0.154 | 0.19 | 0.143 |
| NCI-H441 | 0.486 | 0.477 | 0.434 | 0.441 | 0.49 |
| NCI-H460 | 0.161 | 0.146 | 0.206 | 0.224 | 0.128 |
| NCI-H520 | 0.599 | 0.619 | 0.812 | 0.586 | 0.638 |
| NCI-H596 | 0.701 | 0.844 | 0.764 | 0.694 | 0.777 |
| NCI-H647 | 0.456 | 0.49 | 0.435 | 0.399 | 0.494 |
| NCI-H650 | 1.02 | 0.952 | 1.08 | 0.946 | 1.21 |
| NCI-H661 | 0.581 | 0.617 | 0.678 | 0.637 | 0.607 |
| NCI-H727 | 0.405 | 0.401 | 0.407 | 0.416 | 0.426 |
| NCI-H838 | 0.514 | 0.499 | 0.487 | 0.477 | 0.543 |
| NCI-H1355 | 0.461 | 0.405 | 0.475 | 0.45 | 0.492 |
| NCI-H1395 | 1.04 | 0.984 | 1.07 | 1.02 | 1.06 |
| NCI-H1437 | 0.564 | 0.475 | 0.521 | 0.519 | 0.462 |
| NCI-H1648 | 0.581 | 0.413 | 0.471 | 0.477 | 0.527 |
| NCI-H1650 | 0.718 | 0.625 | 0.757 | 0.598 | 0.816 |
| NCI-H1651 | 0.852 | 0.809 | 0.816 | 0.81 | 0.857 |
| NCI-H1666 | 1.02 | 0.881 | 0.939 | 0.945 | 0.855 |
| NCI-H1734 | 0.652 | 0.68 | 0.762 | 0.651 | 0.642 |
| NCI-H1755 | 0.831 | 0.766 | 0.794 | 0.733 | 0.758 |
| NCI-H1792 | 0.394 | 0.457 | 0.416 | 0.46 | 0.36 |
| NCI-H1793 | 0.458 | 0.36 | 0.388 | 0.445 | 0.445 |

| Cell Line | relative viability (first compound 0.02 µM) | relative viability (first compound 0.06325 µM) | relative viability (first compound 0.2 µM) | relative viability (first compound 0.6325 µM) | relative viability (first compound 2 µM) |
| --- | --- | --- | --- | --- | --- |
| NCI-H1915 | 0.275 | 0.282 | 0.306 | 0.283 | 0.319 |
| NCI-H1944 | 0.391 | 0.395 | 0.409 | 0.395 | 0.36 |
| NCI-H1975 | 0.404 | 0.405 | 0.329 | 0.382 | 0.388 |
| NCI-H1993 | 0.517 | 0.481 | 0.489 | 0.58 | 0.502 |
| NCI-H2009 | 0.291 | 0.301 | 0.289 | 0.228 | 0.265 |
| NCI-H2023 | 0.549 | 0.493 | 0.405 | 0.5 | 0.537 |
| NCI-H2085 | 0.534 | 0.628 | 0.599 | 0.528 | 0.627 |
| NCI-H2087 | 0.274 | 0.221 | 0.251 | 0.196 | 0.214 |
| NCI-H2126 | 0.576 | 0.56 | 0.569 | 0.598 | 0.522 |
| NCI-H2170 | 0.928 | 0.92 | 1.04 | 0.866 | 0.945 |
| NCI-H2228 | 0.652 | 0.467 | 0.454 | 0.507 | 0.488 |
| NCI-H2342 | 1.06 | 0.93 | 0.854 | 0.67 | 0.75 |
| NCI-H2347 | 0.284 | 0.289 | 0.286 | 0.277 | 0.271 |
| NCI-H2405 | 0.757 | 0.56 | 0.692 | 0.597 | 0.738 |
| NCI-H3122 | 0.217 | 0.226 | 0.231 | 0.234 | 0.248 |
| PC-3 [JPC-3] | 0.767 | 0.675 | 0.731 | 0.738 | 0.715 |
| PC-14 | 0.743 | 0.795 | 0.822 | 0.696 | 0.86 |
| RERF-LC-KJ | 0.928 | 0.837 | 1.01 | 0.869 | 0.864 |
| SK-LU-1 | 0.429 | 0.516 | 0.491 | 0.551 | 0.52 |
| SK-MES-1 | 0.531 | 0.59 | 0.597 | 0.567 | 0.61 |
| SW 1573 | 0.579 | 0.617 | 0.563 | 0.551 | 0.592 |
| UMC-11 | 0.742 | 0.69 | 0.793 | 0.669 | 0.767 |
